Assay results published in USRE47589E1, “Phosphoramidate compounds and methods of use” (NuCana plc, priority 2003, dated 2019).
Where two headings read alike, the source gives them in different places.

Assays:
Format in all cases: cell-based
[1] = system: human breast cancer cell line (MDA MB 231); assay: MTT cytotoxicity assay, breast cancer cell line; conditions: Homo sapiens, MDA-MB-231, read-out: EC50/μM Breast MDA MB231
Procedure: (§1) The compounds include those whose preparations are described above and compounds made by preparative methods corresponding to the methods described above.
(§2) Compounds were diluted over a range of concentrations and added to cells over 1 to 3 days. The cytotoxity was determined using a MTT assay at the end of each experiment.

[2] = system: human colon cancer cell line (HT115); assay: MTT cytotoxicity assay, colon cancer cell line
Procedure: as §1, §2

[3] = system: human prostate cancer cell line (PC-3); assay: MTT cytotoxicity assay, prostate cancer cell line; conditions: read-out: EC50/μM Prostate PC-3
Procedure: as §1, §2

[4] = Homo sapiens, HT115, read-out: EC50/μM Colon HT115, MTT assay, compounds added to cells over 1 to 3 days
[5] = MTT assay, compounds added to cells over 1 to 3 days, read-out: EC50/μM Colon HT115
[6] = MTT assay, compounds added to cells over 1 to 3 days

| Compound | EC50 [1] | EC50 [2, 4] | EC50 ([3]; Homo sapiens) | EC50 ([2]; read-out: EC50/μM Colon HT115, MTT assay, compounds added to cells over 1 to 3 days) | EC50 [2, 5] | EC50 [3, 6] |
| --- | --- | --- | --- | --- | --- | --- |
| O=c1[nH]c(=O)n([C@H]2CC(O)[C@@H](CO)O2)cc1/C=C/Br (stereo in doubt) [Example A, 5-(2-Bromovinyl)-2′-deoxyuridine, reference compound] | 125 µM | 78.7 µM | 120 µM |  |  |  |
| COC(=O)[C@H](C)NP(=O)(OC[C@H]1O[C@@H](n2cc(/C=C/Br)c(=O)[nH]c2=O)CC1O)Oc1ccccc1 (stereo partly drawn) [Example 1, (E)-5-(2-Bromovinyl)-2′-deoxyuridine-5′-[phenyl-(methoxy-L-alaninyl)]-phosphate, reference compound] | 79 µM | 244 µM | 155 µM | 244 µM |  |  |
| C[C@H](NP(=O)(OC[C@H]1O[C@@H](n2cc(/C=C/Br)c(=O)[nH]c2=O)CC1O)Oc1ccc(C(F)(F)F)cc1)C(=O)OCc1ccccc1 (stereo partly drawn) [Example 4, (E)-5-(2-Bromovinyl)-2′-deoxyuridine-5′-[para-trifluorophenyl-(benzoxy-L-alaninyl)]-phosphate] | 31 µM | 7.4 µM | 9.3 µM |  |  |  |
| COC(=O)[C@H](C)NP(=O)(OC[C@H]1O[C@@H](n2cc(/C=C/Br)c(=O)[nH]c2=O)CC1O)Oc1ccc(F)cc1 (stereo partly drawn) [Example 5, (E)-5-(2-Bromovinyl)-2′-deoxyuridine-5′-[para-fluorophenyl-(methoxy-L-alaninyl)]-phosphate] | 159 µM | 17 µM | 58 µM |  |  |  |
| CCOC(=O)[C@H](C)NP(=O)(OC[C@H]1O[C@@H](n2cc(/C=C/Br)c(=O)[nH]c2=O)CC1O)Oc1ccc(F)cc1 (stereo partly drawn) [Example 6, (E)-5-(2-Bromovinyl)-2′-deoxyuridine-5′-[para-fluorophenyl-(ethoxy-L-alaninyl)]-phosphate] | 46 µM | 11 µM | 42 µM |  |  |  |
| C[C@H](NP(=O)(OC[C@H]1O[C@@H](n2cc(/C=C/Br)c(=O)[nH]c2=O)CC1O)Oc1ccc(F)cc1)C(=O)OCc1ccccc1 (stereo partly shown) [Example 7] | 17 µM | 3.5 µM | 16 µM |  |  |  |
| C[C@H](NP(=O)(OC[C@H]1O[C@@H](n2cc(/C=C/Br)c(=O)[nH]c2=O)CC1O)Oc1ccc([N+](=O)[O-])cc1)C(=O)OCc1ccccc1 (stereo partly drawn) [Example 8, (E)-5-(2-Bromovinyl)-2′-deoxyuridine-5′-[para-nitrophenyl-(benzoxy-L-alaninyl)]-phosphate] | 28 µM | 9 µM |  |  |  |  |
| CCOC(=O)[C@H](C)NP(=O)(OC[C@H]1O[C@@H](n2cc(/C=C/Br)c(=O)[nH]c2=O)CC1O)Oc1ccc([N+](=O)[O-])cc1 (stereo partly drawn) [Example 9, (E)-5-(2-Bromovinyl)-2′-deoxyuridine-5′-[para-nitrophenyl-(ethoxy-L-alaninyl)]-phosphate] | 177 µM | 119 µM | 365 µM |  |  |  |
| COC(=O)[C@H](C)NP(=O)(OC[C@H]1O[C@@H](n2cc(/C=C/Br)c(=O)[nH]c2=O)CC1O)Oc1ccc([N+](=O)[O-])cc1 (stereo partly drawn) [Example 10, (E)-5-(2-Bromovinyl)-2 ′-deoxyuridine-5′-[para-nitrophenyl-(methoxy-L-alaninyl)]-phosphate] | 105 µM | 96.7 µM | 10.4 µM |  |  |  |
| CCOC(=O)[C@H](C)NP(=O)(OC[C@H]1O[C@@H](n2cc(/C=C/Br)c(=O)[nH]c2=O)CC1O)Oc1ccc(Cl)cc1 (stereo partly drawn) [Example 11, (E)-5-(2-bromovinyl)-2′-deoxyuridine-5′-[4-chlorophenyl-(ethoxy-L-alaninyl)]-phosphate] | 28.7 µM | 14.9 µM | 3.4 µM |  |  |  |
| C[C@H](NP(=O)(OC[C@H]1O[C@@H](n2cc(/C=C/Br)c(=O)[nH]c2=O)CC1O)Oc1ccc(Cl)cc1)C(=O)OCc1ccccc1 (stereo partly drawn) [Example 12, (E)-5-(2-bromovinyl)-2′-deoxyuridine-5′-[4-chlorophenyl-(benzoxy-L-alaninyl)]-phosphate] | 6.2 µM | 3.4 µM | 2.4 µM |  |  |  |
| COC(=O)[C@H](C)NP(=O)(OC[C@H]1O[C@@H](n2cc(/C=C/Br)c(=O)[nH]c2=O)CC1O)Oc1ccc(Cl)cc1 (stereo partly drawn) [Example 13, (E)-5-(2-bromovinyl)-2′-deoxyuridine-5′-[4-chlorophenyl-(methoxy-L-alaninyl)]-phosphate] | 61 µM | 70.2 µM | 13 µM |  |  |  |
| CC(C)(NP(=O)(OC[C@H]1O[C@@H](n2cc(/C=C/Br)c(=O)[nH]c2=O)CC1O)Oc1ccccc1)C(=O)OCc1ccccc1 (stereo partly drawn) [Example 14, (E)-5-(2-bromovinyl)-2′-deoxyuridine-5′-[phenyl-(benzoxy-α,α-dimethylglycinyl)]-phosphate] | 19 µM | 14.5 µM | 5.1 µM |  |  |  |
| COC(=O)[C@H](C)NP(=O)(OC[C@H]1O[C@@H](n2cc(/C=C/Br)c(=O)[nH]c2=O)CC1O)Oc1ccc(C(F)(F)F)cc1 (stereo partly drawn) [Example 15, (E)-5-(2-bromovinyl)-2′-deoxyuridine-5′-[para-(trifluoromethyl)-phenyl-(methoxy-L-alaninyl)]-phosphate] | 47 µM | 79.2 µM | 15 µM |  |  |  |
| COC(=O)C1(NP(=O)(OC[C@H]2O[C@@H](n3cc(/C=C/Br)c(=O)[nH]c3=O)CC2O)Oc2ccccc2)CCCC1 (stereo partly drawn) [Example 16, (E)-5-(2-Bromovinyl)-2′-deoxyuridine-5′-[phenyl-(methoxy-α,α-cycloleucinyl)]-phosphate] | 79 µM | 77 µM | 16 µM |  |  |  |
| CCOC(=O)C1(NP(=O)(OC[C@H]2O[C@@H](n3cc(/C=C/Br)c(=O)[nH]c3=O)CC2O)Oc2ccccc2)CCCC1 (stereo partly drawn) [Example 17, (E)-5-(2-Bromovinyl)-2′-deoxyuridine-5′-[phenyl-(ethoxy-α, α-cycloleucinyl)]-phosphate] | 44 µM | 81.3 µM | 41 µM |  |  |  |

| Compound | EC50 [1] | EC50 [2, 4] | EC50 ([3]; Homo sapiens) | EC50 ([2]; read-out: EC50/μM Colon HT115, MTT assay, compounds added to cells over 1 to 3 days) | EC50 [2, 5] | EC50 [3, 6] |
| --- | --- | --- | --- | --- | --- | --- |
| O=C(OCc1ccccc1)C1(NP(=O)(OC[C@H]2O[C@@H](n3cc(/C=C/Br)c(=O)[nH]c3=O)CC2O)Oc2ccccc2)CCCC1 (stereo partly drawn) [Example 18, (E)-5-(2-Bromovinyl)-2′-deoxyuridine-5′-[phenyl-(benzoxy-α, α-cycloleucinyl)]-phosphate] | 78 µM | 9.7 µM | 33 µM |  |  |  |
| COC(=O)C1(NP(=O)(OC[C@H]2O[C@@H](n3cc(/C=C/Br)c(=O)[nH]c3=O)CC2O)Oc2ccc([N+](=O)[O-])cc2)CCCC1 (stereo partly drawn) [Example 19, (E)-5-(2-Bromovinyl)-2′-deoxyuridine-5′-[para-nitrophenyl-(methoxy-α,α-cycloleucinyl)]-phosphate] | 56 µM | 38.2 µM | 88 µM |  |  |  |
| CCOC(=O)C1(NP(=O)(OC[C@H]2O[C@@H](n3cc(/C=C/Br)c(=O)[nH]c3=O)CC2O)Oc2ccc([N+](=O)[O-])cc2)CCCC1 (stereo partly drawn) [Example 20, (E)-5-(2-Bromovinyl)-2′-deoxyuridine-5′-[para-nitrophenyl-(ethoxy-α,α-cycloleucinyl)]-phosphate] | 13 µM | 57.3 µM | 15 µM |  |  |  |
| CCOC(=O)[C@H](C)NP(=O)(OC[C@H]1O[C@@H](n2cc(/C=C/Br)c(=O)[nH]c2=O)CC1O)Oc1ccc(C(F)(F)F)cc1 (stereo partly shown) [Example 25] | 33.8 µM | 4.6 µM |  |  |  |  |
| COC(=O)C1(NP(=O)(OC[C@H]2O[C@@H](n3cc(/C=C/Br)c(=O)[nH]c3=O)CC2O)Oc2ccc(C(F)(F)F)cc2)CCCC1 (stereo partly drawn) [Example 28, (E)-5-(2-Bromovinyl)-2′-deoxyuridine-5′-[para-trifluorophenyl-(methoxy-α,α-cycloleucinyl)]-phosphate] | 28.8 µM | 21.2 µM |  |  |  |  |
| O=C(OCc1ccccc1)C1(NP(=O)(OC[C@H]2O[C@@H](n3cc(/C=C/Br)c(=O)[nH]c3=O)CC2O)Oc2ccc(C(F)(F)F)cc2)CCCC1 (stereo partly drawn) [Example 30, (E)-5-(2-Bromovinyl)-2′-deoxyuridine-5′-[para-trifluorophenyl-(benzoxy-α,α-cycloleucinyl)]-phosphate] | 6.9 µM | 6.4 µM |  |  |  |  |
| O=C(OCc1ccccc1)C(Cc1ccccc1)NP(=O)(OCC1OC(n2cc(C=CBr)c(=O)[nH]c2=O)CC1O)Oc1ccccc1 (stereo not shown) [Example 54] |  |  |  |  | 5.1 µM |  |
| CCOC(=O)C(C)(C)NP(=O)(OCC1OC(n2cc(C=CBr)c(=O)[nH]c2=O)CC1O)Oc1ccc(C(F)(F)F)cc1 (stereo not shown) [Example 59] |  |  |  |  | 24.7 µM |  |
| CCOC(=O)C(NP(=O)(OCC1OC(n2cc(C=CBr)c(=O)[nH]c2=O)CC1O)Oc1ccccc1)C(C)CC (stereo not shown) [Example 73] |  |  |  |  |  | 30.6 µM |
| O=C(CNP(=O)(OCC1OC(n2cc(C=CBr)c(=O)[nH]c2=O)CC1O)Oc1ccc(Cl)cc1)OCc1ccccc1 (stereo not shown) [Example 77] |  |  |  |  |  | 150 µM |
| CC(C)[C@H](NP(=O)(OC[C@H]1O[C@@H](n2cc(/C=C/Br)c(=O)[nH]c2=O)C[C@@H]1O)Oc1ccc(C(F)(F)F)cc1)C(=O)OCc1ccccc1 (stereo partly shown) [Example 78] |  |  |  |  |  | 1.6 µM |
| CC(C)(NP(=O)(OCC1OC(n2cc(C=CBr)c(=O)[nH]c2=O)CC1O)Oc1ccc(F)cc1)C(=O)OCc1ccccc1 (stereo not shown) [Example 84] |  |  |  |  |  | 4.5 µM |
| CC(C)C(NP(=O)(OCC1OC(n2cc(C=CBr)c(=O)[nH]c2=O)CC1O)Oc1ccccc1)C(=O)OCc1ccccc1 (stereo not shown) [Example 85] |  |  |  |  |  | 31.2 µM |
| CC(C)C(NP(=O)(OCC1OC(n2cc(C=CBr)c(=O)[nH]c2=O)CC1O)Oc1ccc(Cl)cc1)C(=O)OCc1ccccc1 (stereo not shown) [Example 86] |  |  |  |  |  | 0.9 µM |
| O=C(OCc1ccccc1)C(NP(=O)(OCC1OC(n2cc(C=CBr)c(=O)[nH]c2=O)CC1O)Oc1ccc(C(F)(F)F)cc1)c1ccccc1 (stereo not shown) [Example 91] |  |  |  |  |  | 0.7 µM |
| propenate-2′-deoxyuridine [Example 67, reference compound] |  |  |  |  | 93.7 µM |  |
